According to patent USRE40086E1, “Method for treating bacterial infection with novel 7-substituted-9-substituted amino 6-demethyl-6-deoxytetracyclines” (Wyeth Holdings Corporation, priority 1991, dated 2008):

What was measured:
[1] = test system: E. coli UBMS 89-2 (Sensitive); experiment: MIC, agar dilution; format: cell-based; details: E. coli UBMS 89-2 Tet Sens.; Table IA; unit assumed
E. faecalis ATCC 29212 = experiment: MIC, agar dilution; format: cell-based; details: E. faecalis ATCC 29212; Table IA; unit assumed
S. aureus NEMC 8769/89-4 = experiment: MIC, agar dilution (Table IA); format: cell-based; details: unit assumed
[2] = test system: S. aureus UBMS 90-2 (tetM); experiment: MIC, agar dilution; format: cell-based; details: S. aureus UBMS 90-2 TetM; Table IA; unit assumed
E. coli #311 (MP) = experiment: MIC, agar dilution (Table IA); format: cell-based; details: unit assumed
E. coli J3272 Tet sens. = experiment: MIC, agar dilution (Table IA); format: cell-based; details: unit assumed
[3] = test system: S. aureus UBMS 88-5 (tetM); experiment: MIC, agar dilution; format: cell-based; details: S. aureus UBMS 88-5 TetM; Table IA; unit assumed
[4] = test system: S. aureus IVES 1983 (meth. resistant); experiment: MIC, agar dilution; format: cell-based; details: S. aureus IVES 1983; Table IA; unit assumed
[5] = test system: Ps. acruginosa ATCC 27853; experiment: MIC, agar dilution (Table IA); format: cell-based; details: unit assumed
[6] = test system: S. aureus Smith (Sensitive); experiment: MIC, agar dilution; format: cell-based; details: S. aureus SMITH (MP); Table IA; unit assumed
[7] = test system: S. aureus ATCC 29213 (Sensitive); experiment: MIC, agar dilution; format: cell-based; details: S. aureus ATCC 29213; Table IA; unit assumed
S. aureus SMITH (sens) = experiment: In vivo antibacterial evaluation, acute lethal infection in mice; details: Oral
Source text: In Vivo Antibacterial Evaluation (Table VII)

E. coli J2175 = experiment: MIC, agar dilution (Table IA); format: cell-based; details: unit assumed
[8] = test system: S. aureus UBMS 88-7 (tetK); experiment: MIC, agar dilution; format: cell-based; details: S. aureus UBMS 88-7 TetK; Table IA; unit assumed
[9] = test system: TetM S30 extract, derivative of E. coli MRE600 containing the tetM determinant; experiment: E. coli in vitro transcription and protein translation, 35S-methionine incorporation (Table VIII)
E. coli UBMS 90-5 = experiment: MIC, agar dilution (Table IA); format: cell-based; details: unit assumed
E. coli UBMS 88-1 (tetB) = experiment: MIC, agar dilution; format: cell-based; details: E. coli UBMS 88-1 TetB; Table IA; unit assumed
E. coli MC4100 TetB = experiment: MIC, agar dilution (Table IA); format: cell-based; details: unit assumed
E. coli BAJ9003 = experiment: MIC, agar dilution (Table IA); format: cell-based; details: unit assumed
[10] = test system: S. aureus UBMS 88-4 (Sensitive); experiment: MIC, agar dilution; format: cell-based; details: S. aureus UBMS 88-4; Table IA; unit assumed
[11] = test system: S. haemolyticus AVAH 88-3; experiment: MIC, agar dilution; format: cell-based; details: S. hemolyticus AVHAH 88-3; Table IA; unit assumed
[12] = test system: S. aureus UBMS 90-1 (tetM); experiment: MIC, agar dilution; format: cell-based; details: S. aureus UBMS 90-1 TetM; Table IA; unit assumed
E. coli PRP1 TetA = experiment: MIC, agar dilution (Table IA); format: cell-based; details: unit assumed
E. coli UBMS 89-1 (tetM) = experiment: MIC, agar dilution; format: cell-based; details: E. coli UBMS 89-1 TetM; Table IA; unit assumed
E. coli J3272 TetC = experiment: MIC, agar dilution (Table IA); format: cell-based; details: unit assumed
E. coli ATCC 25922 = experiment: MIC, agar dilution; format: cell-based; details: E. coli ATCC 25922; Table IA; unit assumed
[13] = test system: S. aureus IVES 2943 (meth. resistant); experiment: MIC, agar dilution; format: cell-based; details: S. aureus IVES 2943; Table IA; unit assumed
[14] = test system: S. aureus UBMS 90-3 (Sensitive); experiment: MIC, agar dilution; format: cell-based; details: S. aureus UBMS 90-3; Table IA; unit assumed
S. mariescens FDOR 8733 = experiment: MIC, agar dilution (Table IA); format: cell-based; details: unit assumed
E. coli J3272 TetD = experiment: MIC, agar dilution (Table IA); format: cell-based; details: unit assumed
[15] = test system: X. maltophilia NEMC 87210; experiment: MIC, agar dilution (Table IA); format: cell-based; details: unit assumed
S. aureus ROSE (MP) = experiment: MIC, agar dilution (Table IA); format: cell-based; details: unit assumed
E. coli UBMS 90-4 (tetM) = experiment: MIC, agar dilution; format: cell-based; details: E. coli UBMS 90-4 TetM; Table IA; unit assumed
E. faecalis 12201 = experiment: MIC, agar dilution; format: cell-based; details: Enterococcus 12201; Table IA; unit assumed
[16] = test system: Wild Type S30 extract, E. coli strain MRE600 (tetracycline sensitive); experiment: E. coli in vitro transcription and protein translation, 35S-methionine incorporation (Table VIII)
E. coli MC4100 Tet sens. = experiment: MIC, agar dilution (Table IA); format: cell-based; details: unit assumed

Row | SMILES | Antibacterial activity (MIC) [1] | Antibacterial activity (MIC) (E. faecalis ATCC 29212) | Antibacterial activity (MIC) (S. aureus NEMC 8769/89-4) | Antibacterial activity (MIC) [2] | Antibacterial activity (MIC) (E. coli #311 (MP)) | Antibacterial activity (MIC) [3] | Antibacterial activity (MIC) [4] | Antibacterial activity (MIC) [5] | Antibacterial activity (MIC) [6] | Antibacterial activity (MIC) [7] | Antibacterial activity (MIC) (E. coli J2175) | Antibacterial activity (MIC) [8] | Antibacterial activity (MIC) (E. coli UBMS 90-5) | Antibacterial activity (MIC) (E. coli UBMS 88-1 (tetB)) | Antibacterial activity (MIC) (E. coli MC4100 TetB) | Antibacterial activity (MIC) (E. coli BAJ9003) | Antibacterial activity (MIC) [10] | Antibacterial activity (MIC) [11] | Antibacterial activity (MIC) [12] | Antibacterial activity (MIC) (E. coli PRP1 TetA) | further results
1 | CCN(CC)CC(=O)Nc1cc(N(C)C)c2c(c1O)C(=O)C1=C(O)[C@]3(O)C(=O)C(C(N)=O)=C(O)[C@@H](N(C)C)C3CC1C2.Cl.Cl (stereo partly drawn) [RR, [4S-(4alpha,12aalpha))-9-([(Diethylamino)acetyl)amino]-4,7-Bis(dimethylamino)-1,4,4a,5,5a,6,11,12a-octahydro-3,10,12,12a-tetrahydroxy-1,11-dioxo-2-naphthacenecarboxamide dihydrochloride] | 1 µg/mL | 0.12 µg/mL | 0.06 µg/mL | 0.25 µg/mL | 0.5 µg/mL | 0.25 µg/mL | 0.25 µg/mL | 32 µg/mL | 0.25 µg/mL | 0.12 µg/mL | 1 µg/mL | 0.5 µg/mL | 1 µg/mL | 1 µg/mL | 1 µg/mL | 0.06 µg/mL | 0.25 µg/mL | 0.5 µg/mL | 0.25 µg/mL | 2 µg/mL | Antibacterial activity (MIC) (E. coli J3272 Tet sens.): 1 µg/mL; ED50 (S. aureus SMITH (sens)): 8 to 16 mg/kg; % INHIBITION TetM S30 ([9]; 0.06 mg/ml): 90%; % INHIBITION TetM S30 ([9]; 0.2 mg/ml): 97%; % INHIBITION TetM S30 ([9]; 1.0 mg/ml): 99%; Antibacterial activity (MIC) (E. coli UBMS 89-1 (tetM)): 0.25 µg/mL; Antibacterial activity (MIC) (E. coli J3272 TetC): 1 µg/mL; Antibacterial activity (MIC) (E. coli ATCC 25922): 0.5 µg/mL; Antibacterial activity (MIC) [13]: 1 µg/mL; Antibacterial activity (MIC) [14]: 0.25 µg/mL; Antibacterial activity (MIC) (S. mariescens FDOR 8733): 4 µg/mL; Antibacterial activity (MIC) (E. coli J3272 TetD): 0.25 µg/mL; Antibacterial activity (MIC) [15]: 0.25 µg/mL; Antibacterial activity (MIC) (S. aureus ROSE (MP)): 1 µg/mL; Antibacterial activity (MIC) (E. coli UBMS 90-4 (tetM)): 0.5 µg/mL; Antibacterial activity (MIC) (E. faecalis 12201): 0.12 µg/mL; % INHIBITION Wild Type S30 ([16]; 0.06 mg/ml): 93%; % INHIBITION Wild Type S30 ([16]; 0.2 mg/ml): 97%; % INHIBITION Wild Type S30 ([16]; 1.0 mg/ml): 99%
2 | CCCCN(C)CC(=O)Nc1cc(N(C)C)c2c(c1O)C(=O)C1=C(O)C3(O)C(=O)C(C(N)=O)=C(O)C(N(C)C)C3CC1C2.Cl.Cl (stereo not drawn) [CCC, [4S-(4alpha,12aalpha)]-9-[[(Butylmethylamino)acetyl]amino]-4,7-Bis(dimethylamino)-1,4,4a,5,5a,6,11,12a-octahydro-3,10-12,12a-tetrahydroxy-1,11-dioxo-2-naphthacenecarboxamide dihydrochloride] | 2 µg/mL | 0.12 µg/mL | 0.12 µg/mL | 0.25 µg/mL | 1 µg/mL | 0.5 µg/mL | 1 µg/mL | > 32 µg/mL | 0.5 µg/mL | 0.5 µg/mL | 2 µg/mL | 1 µg/mL | 2 µg/mL | 1 µg/mL | 2 µg/mL | 0.12 µg/mL | 0.5 µg/mL | 0.5 µg/mL | 1 µg/mL | 2 µg/mL | Antibacterial activity (MIC) (E. coli UBMS 89-1 (tetM)): 0.25 µg/mL; Antibacterial activity (MIC) (E. coli J3272 TetC): 1 µg/mL; Antibacterial activity (MIC) (E. coli MC4100 Tet sens.): 0.25 µg/mL; Antibacterial activity (MIC) (E. coli ATCC 25922): 1 µg/mL; Antibacterial activity (MIC) [13]: 1 µg/mL; Antibacterial activity (MIC) [14]: 0.25 µg/mL; Antibacterial activity (MIC) (S. mariescens FDOR 8733): 16 µg/mL; Antibacterial activity (MIC) (E. coli J3272 TetD): 0.5 µg/mL; Antibacterial activity (MIC) [15]: 0.25 µg/mL; Antibacterial activity (MIC) (S. aureus ROSE (MP)): 2 µg/mL; Antibacterial activity (MIC) (E. coli UBMS 90-4 (tetM)): 1 µg/mL; Antibacterial activity (MIC) (E. faecalis 12201): 0.25 µg/mL
